Test results from patent US12186314B2, “Compositions and methods for treatment, amelioration, and prevention of anesthesia-induced hypothermia” (ARIZONA BOARD OF REGENTS ON BEHALF OF THE UNIVERSITY OF …, priority 2015, dated 2025).
“Also recorded” adds a separate entry of the source. Like-named read-outs stand apart in the source and are kept apart here.

Tests used:
TRPV1 [1] = target: T1, TRPV1 (Rattus norvegicus, UniProt O35433); design: from tissue; host or cells: whole live non-anesthetized rats; conditions: non-anesthetized (unanesthetized) rats, cited from earlier work
T1 sequence (O35433 whole entry): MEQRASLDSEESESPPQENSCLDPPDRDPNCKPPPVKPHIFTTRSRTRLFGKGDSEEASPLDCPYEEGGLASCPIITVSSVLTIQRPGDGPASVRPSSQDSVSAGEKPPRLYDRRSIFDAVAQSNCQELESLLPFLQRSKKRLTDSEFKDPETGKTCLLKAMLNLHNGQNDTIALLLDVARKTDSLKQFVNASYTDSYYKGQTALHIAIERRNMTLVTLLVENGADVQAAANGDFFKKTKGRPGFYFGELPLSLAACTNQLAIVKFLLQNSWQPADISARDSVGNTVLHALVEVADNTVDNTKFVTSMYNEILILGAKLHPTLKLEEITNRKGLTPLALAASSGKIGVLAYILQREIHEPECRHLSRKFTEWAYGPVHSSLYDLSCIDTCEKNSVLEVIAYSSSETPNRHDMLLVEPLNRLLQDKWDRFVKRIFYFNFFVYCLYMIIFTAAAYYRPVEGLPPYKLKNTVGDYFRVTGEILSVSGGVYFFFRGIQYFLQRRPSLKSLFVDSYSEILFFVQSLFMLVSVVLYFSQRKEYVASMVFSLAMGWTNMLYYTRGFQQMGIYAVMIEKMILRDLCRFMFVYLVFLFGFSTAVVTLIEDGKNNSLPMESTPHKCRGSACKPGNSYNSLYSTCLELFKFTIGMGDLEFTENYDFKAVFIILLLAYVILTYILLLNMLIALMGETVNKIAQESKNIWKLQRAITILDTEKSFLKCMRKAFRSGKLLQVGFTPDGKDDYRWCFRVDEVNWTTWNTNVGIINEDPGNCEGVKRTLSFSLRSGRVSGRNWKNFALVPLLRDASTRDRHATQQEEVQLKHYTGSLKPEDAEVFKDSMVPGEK

TRPV1 [2] = target: T2, TRPV1 (Homo sapiens, UniProt Q8NER1); conditions: non-anesthetized humans; cited from earlier work
T2 construct: host or cells: human subjects (clinical observations)
T2 sequence (Q8NER1 whole entry): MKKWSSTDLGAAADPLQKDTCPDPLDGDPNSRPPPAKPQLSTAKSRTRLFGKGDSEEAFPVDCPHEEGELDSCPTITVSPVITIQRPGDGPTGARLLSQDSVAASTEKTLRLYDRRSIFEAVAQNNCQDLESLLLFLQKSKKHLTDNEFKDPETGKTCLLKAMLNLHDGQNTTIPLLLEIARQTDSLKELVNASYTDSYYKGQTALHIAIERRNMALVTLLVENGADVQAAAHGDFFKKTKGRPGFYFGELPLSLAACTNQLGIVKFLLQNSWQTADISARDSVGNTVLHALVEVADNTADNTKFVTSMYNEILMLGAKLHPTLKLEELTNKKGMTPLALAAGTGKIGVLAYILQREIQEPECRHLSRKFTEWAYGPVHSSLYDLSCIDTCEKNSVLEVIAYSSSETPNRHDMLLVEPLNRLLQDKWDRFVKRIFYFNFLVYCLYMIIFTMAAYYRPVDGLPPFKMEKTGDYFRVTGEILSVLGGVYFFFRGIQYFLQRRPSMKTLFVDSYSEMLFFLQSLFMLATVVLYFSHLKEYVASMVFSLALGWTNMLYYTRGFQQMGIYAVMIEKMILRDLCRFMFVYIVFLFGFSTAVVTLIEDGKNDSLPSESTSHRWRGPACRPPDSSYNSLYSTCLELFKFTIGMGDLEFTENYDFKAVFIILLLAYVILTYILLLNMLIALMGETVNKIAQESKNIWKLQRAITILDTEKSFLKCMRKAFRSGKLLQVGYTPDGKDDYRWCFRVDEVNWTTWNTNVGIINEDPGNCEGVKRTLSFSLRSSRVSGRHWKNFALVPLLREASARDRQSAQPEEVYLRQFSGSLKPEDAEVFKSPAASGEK

TRPV1 [3] = target: T1, TRPV1; test: isoflurane anesthesia-induced hypothermia in adult rats, various TRPV1 antagonists, rectal temperature; assay type: in vivo; design: from tissue; host or cells: whole live non-anesthetized rats; conditions: isoflurane 2 L/min, 5% induction, 2.5% maintenance, 20 minutes post anesthesia-induction
Description: After acclimatizing to the testing chamber and obtaining baseline core body temperature, adult rats were anesthetized with isoflurane (2 L/min, 5% induction, 2.5% maintenance) and the anesthetized animals were injected with vehicle or various TRPV1 antagonists at doses described and rectal temperature was monitored for 20 minutes post anesthesia-induction.

TRPV1 [4] = target: T1, TRPV1; test: volatile (isoflurane) anesthesia-induced hypothermia in adult rats, rectal core body temperature; assay type: in vivo; design: from tissue; host or cells: whole live non-anesthetized rats; conditions: isoflurane 5% induction, 2.5% maintenance, 0.01, 0.1 and 1 mg/kg, 5 min intervals, 0.1 and 1 mg/kg significant at all time points (p<0.01)
Description: Briefly, after obtaining baseline core body temperature, lightly restrained rats were anesthetized with isoflurane (5% induction, 2.5% maintenance), the effect of varying dose of AMG 517 (0.01, 0.1 and 1 mg/kg) and control (vehicle) on rectally-measured temperature (core body temperature) was measured at 5 min intervals. At 20 minutes, a warming blanket was used to prevent further temperature drop in the control (vehicle) group. Vehicle treated rats developed hypothermia after exposure to anesthesia.

TRPV1 [5] = target: T1, TRPV1; test: ketamine-induced hypothermia in rats, core body temperature; assay type: in vivo; design: from tissue; host or cells: whole live non-anesthetized rats; conditions: ketamine 100 mg/kg, 0.01-1 mg/kg tail vein
Description: This example describes the use of AMG 517 to reverse hypothermia induced by a non-volatile anesthetic (ketamine) (FIG. 5). After taking baseline core body temperature, rats were anesthetized with ketamine (100 mg/kg) and quickly injected with either vehicle or 0.01-1 mg/kg of AMG 517 via a tail vein injection. The core body temperature was measured every 5 minutes for 20 minutes post ketamine injection (n=8 per group).

TRPV1 [6] = target: T1, TRPV1; test: core body temperature during isoflurane anesthesia and in the post-anesthesia period; assay type: in vivo; design: from tissue; host or cells: whole live non-anesthetized rats; conditions: rats
Description: After taking baseline core body temperature, rats were anesthetized with isoflurane and quickly injected with either vehicle or 0.1 mg/kg of AMG 517 via a tail vein injection. The core body temperature was measured every 5 minutes during the duration of anesthesia (45 min) and 30 minutes after that (n=8 per group) (see, FIG. 3).

TRPV1 [7] = target: T1, TRPV1; conditions: 24 hours post surgery
TRPV1 [8] = target: T1, TRPV1; test: isoflurane anesthesia-induced hypothermia in neonatal rats, core body temperature; assay type: in vivo; design: from tissue; host or cells: whole live non-anesthetized rats; conditions: neonatal rats (age 10d), 1 mg/kg i.v. (at 20 min time point) and 2 mg/kg (all time points)
Description: Briefly, after gently separating neonatal male or female rats (age 10d) from the littermates, the animals were exposed to isoflurane anesthesia (5% induction, 2.5% maintenance), and then were injected with either vehicle or AMG 517 (1-2 mg/kg, i.v.) and core body temperature was measured at 5 minute intervals.

Compound	ability to cause hyperthermia (TRPV1 [1])	ability to cause hyperthermia (TRPV1 [2])	reversal/prevention of anesthesia-induced hypothermia (rectal temperature) (TRPV1 [3])	also measured
Cc1cc2c(NC(=O)N[C@@H]3CC(CF)(CF)Oc4cc(Cl)ccc43)cccc2cn1 [A-1165442]	unable to cause hyperthermia			
CC(C)(C)c1ccc2c(c1)CC[C@H]2NC(=O)Nc1cccc2[nH]ncc12 [ABT 102]	able to cause hyperthermia	able to cause hyperthermia	dose dependently reverse anesthesia-induced hypothermia	ability to cause hyperthermia (TRPV1 [1]; listed as ABT): cause hyperthermia in unanesthetized rats
CC(=O)Nc1nc2c(Oc3cc(-c4ccc(C(F)(F)F)cc4)ncn3)cccc2s1 [AMG 517]	able to cause hyperthermia	able to cause hyperthermia		reversal of anesthesia-induced hypothermia (rectally-measured core body temperature) (TRPV1 [4]): dose dependently reversed anesthesia-induced hypothermia; hyperthermia under ketamine anesthesia (TRPV1 [5]): without causing hyperthermia at all time points tested; reversal of ketamine-induced hypothermia (core body temperature) (TRPV1 [5]; 20 minutes post ketamine): dose dependently and statistically significantly; hyperthermia in the post-anesthesia period (TRPV1 [6]; 0.1 mg/kg tail vein, 30 minutes after anesthesia, 0.1 mg/kg): does not produce hyperthermia in the post-anesthesia period; also recorded: did not cause hyperthermia even when the animals recovered from anesthesia; development of hypothermia during anesthesia (core body temperature) (TRPV1 [6]; isoflurane 45 min, 0.1 mg/kg tail vein injection): never developed hypothermia throughout the anesthesia period; opioid sparing effect on postsurgical thermal and mechanical hyperalgesia (TRPV1 [7]; rats, preemptive tail vein dose before incision, subcutaneous morphine): opioid sparing effect; reversal of anesthesia-induced hypothermia (core body temperature) (TRPV1 [8]): partially and statistically significantly
CC(C)(C)c1ccc(/C=C/C(=O)Nc2ccc3c(c2)OCCO3)cc1 [AMG 9810]	able to cause hyperthermia	able to cause hyperthermia	dose dependently reverse anesthesia-induced hypothermia	ability to cause hyperthermia (TRPV1 [1]; listed as AMG): cause hyperthermia in unanesthetized rats
COc1cccc(NC(=O)/C=C/c2ccc(Cl)cc2)c1 [SB366791]	unable to cause hyperthermia		dose dependently reverse anesthesia-induced hypothermia	ability to cause hyperthermia (TRPV1 [1]; listed as SB): cause hyperthermia in unanesthetized rats
Oc1cc2c(cc1O)CN(C(=S)NCCc1ccc(Cl)cc1)CCC2 [capsazepine]	unable to cause hyperthermia; also recorded: don't		able to prevent anesthesia-induced hypothermia; also recorded: dose dependently reverse anesthesia-induced hypothermia	
CN1CC[C@]23c4c5ccc(O)c4O[C@H]2[C@@H](O)C=C[C@H]3[C@H]1C5 [morphine]				morphine analgesic effect on postsurgical thermal and mechanical hyperalgesia (TRPV1 [7]; animals that received preemptive TRPV1 antagonist treatment before the surgical insult): analgesic effect at much lower doses of 0.3 and 0.6 mg/kg; morphine analgesic effect on postsurgical thermal and mechanical hyperalgesia (TRPV1 [7]; vehicle treated animals): not responsive to morphine until the dose of morphine was raised to 1 mg/kg
